Assay results: ChEMBL document CHEMBL1201862, “PubChem BioAssay data set” (2004)
One block for each compound: values may come before it. Activity calls are given as the source filed them.

Key:
[1] = biological target: Heat shock protein HSP 90-alpha (Homo sapiens, UniProt P07900); assay: Luminescence-based dose response biochemical high throughput screening assay for inhibitors of the Heat Shock Protein 90 (HSP90). [Related pubchem assays: 1831 (Summary AID.), 1846 (Confirmation screen.), 1789 (Primary screen.)]
[2] = biological target: T1, Heat shock factor protein 1 (Mus musculus, UniProt P38532); assay: enhancement of HSF1-driven luciferase signal – cell-based, NIH3T3, luminescence, dose retest, confirmation (AID 435004); format: functional;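 note: stress induced by proteasome inhibitor MG132 added 30 min after compound; luciferase reporter driven by HSF1 response element in NIH3T3 cells; actives raise luminescence as potentiators of the MG132 stress response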
T1 sequence (P38532 whole entry): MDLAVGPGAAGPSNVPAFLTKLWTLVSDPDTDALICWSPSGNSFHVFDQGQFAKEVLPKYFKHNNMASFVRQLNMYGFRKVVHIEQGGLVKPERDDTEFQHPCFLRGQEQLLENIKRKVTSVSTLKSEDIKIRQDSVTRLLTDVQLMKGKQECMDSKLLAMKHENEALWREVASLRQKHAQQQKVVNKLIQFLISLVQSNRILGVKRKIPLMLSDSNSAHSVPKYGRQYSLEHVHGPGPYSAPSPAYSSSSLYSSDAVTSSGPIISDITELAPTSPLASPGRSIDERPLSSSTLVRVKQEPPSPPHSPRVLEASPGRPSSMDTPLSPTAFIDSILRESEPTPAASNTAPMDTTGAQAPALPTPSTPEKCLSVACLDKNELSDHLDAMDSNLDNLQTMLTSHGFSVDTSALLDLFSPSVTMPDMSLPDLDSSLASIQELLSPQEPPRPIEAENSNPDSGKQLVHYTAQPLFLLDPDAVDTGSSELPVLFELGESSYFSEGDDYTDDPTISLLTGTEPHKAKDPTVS

[3] = cells
[4] = test system: HEK293; assay: cells; format: functional, cell-based; conditions: Homo sapiens
[5] = biological target: T2, Nuclear receptor subfamily 0 group B member 1 (Homo sapiens, UniProt P51843); assay: Luminescence-based cell-based high throughput dose response assay for inhibitors of the orphan nuclear receptor subfamily 0, group B, member 1 (DAX1; NR0B1). [Related pubchem assays (depositor defined):AID504766, AID504790]; format: functional
T2 sequence (P51843 whole entry): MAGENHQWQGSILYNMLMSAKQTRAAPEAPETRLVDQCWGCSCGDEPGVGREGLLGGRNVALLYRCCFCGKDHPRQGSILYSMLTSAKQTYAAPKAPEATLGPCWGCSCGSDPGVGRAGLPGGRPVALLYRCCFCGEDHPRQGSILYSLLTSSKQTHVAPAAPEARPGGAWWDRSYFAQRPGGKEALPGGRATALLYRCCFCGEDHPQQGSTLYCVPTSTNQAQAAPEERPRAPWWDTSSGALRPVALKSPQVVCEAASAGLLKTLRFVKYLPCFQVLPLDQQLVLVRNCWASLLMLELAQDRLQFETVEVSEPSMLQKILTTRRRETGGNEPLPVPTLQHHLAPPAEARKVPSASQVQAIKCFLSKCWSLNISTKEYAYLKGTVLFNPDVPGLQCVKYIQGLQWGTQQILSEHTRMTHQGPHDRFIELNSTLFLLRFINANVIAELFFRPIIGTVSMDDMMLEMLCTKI

[6] = biological target: T3, Oxysterols receptor LXR-beta (Homo sapiens, UniProt P55055); format: functional, cell-based;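 note: Cell-based luminescence dose-response assay of agonist activity at LXR, run as a confirmatory counterscreen to a daf-12 agonist screen; HEK293 cells with Gal4-LXR fusion and GAL4-driven luciferase reporter; agonist potency from rising luciferase signal of a Gal4-LXR reporter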
T3 sequence (P55055 whole entry): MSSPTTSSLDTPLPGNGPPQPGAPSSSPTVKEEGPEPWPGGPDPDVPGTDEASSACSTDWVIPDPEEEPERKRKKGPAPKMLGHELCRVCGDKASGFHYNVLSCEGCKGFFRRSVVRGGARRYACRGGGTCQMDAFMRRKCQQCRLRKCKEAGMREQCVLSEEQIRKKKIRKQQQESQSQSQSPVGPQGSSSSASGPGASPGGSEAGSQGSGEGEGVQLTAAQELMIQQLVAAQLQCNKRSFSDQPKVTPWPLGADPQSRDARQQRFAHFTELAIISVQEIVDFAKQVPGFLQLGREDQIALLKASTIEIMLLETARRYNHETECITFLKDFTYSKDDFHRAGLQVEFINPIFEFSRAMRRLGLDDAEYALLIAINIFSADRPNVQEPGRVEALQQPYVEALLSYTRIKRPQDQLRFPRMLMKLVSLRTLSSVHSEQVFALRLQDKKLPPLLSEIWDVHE

[7] = biological target: Vasopressin V1b receptor (Homo sapiens, UniProt P47901); assay: Late-stage results from the probe development effort to identify antagonists of arginine vasopressin receptor 1a (AVPR1a): fluorescence-based cell-based dose response AVPR1b inhibition counterscreen assay.; format: functional
[8] = biological target: Vasopressin V2 receptor (Homo sapiens, UniProt P30518); assay: Late-stage results from the probe development effort to identify antagonists of arginine vasopressin receptor 1a (AVPR1a): fluorescence-based cell-based dose response AVPR2 inhibition counterscreen assay.; format: functional
[9] = Late-stage results from the probe development effort to identify antagonists of arginine vasopressin receptor 1a (AVPR1a): fluorescence-based cell-based dose response OXTR inhibition counterscreen assay.; format: functional
[10] = Late-stage results from the probe development effort to identify antagonists of arginine vasopressin receptor 1a (AVPR1a): fluorescence-based cell-based dose response AVPR1a inhibition assay.; format: functional
[11] = test system: HEK293; assay: cells; conditions: Homo sapiens
[12] = biological target: Disintegrin and metalloproteinase domain-containing protein 17 (Homo sapiens, UniProt P78536); assay: inhibition of ADAM17 substrate cleavage – biochemical, quenched FRET substrate, counter-screen for ADAM10 exosite inhibitor project, dose response (AID 743253)
[13] = test system: HEK293; assay: cells; conditions: Homo sapiens; remark: listed apart in the source
[14] = potency of ADAM10 substrate cleavage blockers – biochemical, QFRET, dose response (AID 743254);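 note: ADAM10 enzyme with the DM2 quenched FRET peptide as substrate; EDANS fluorescence gain as the protease cuts the substrate; inhibitor potency against ADAM10 proteolytic activity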
[15] = biological target: Sphingosine 1-phosphate receptor 2 (Homo sapiens, UniProt O95136); assay: Dose Response Cell Based Assay for Agonists of the S1P2 Receptor. [Related pubchem assays: 729, 736, 843 ]; format: functional
Sphingosine 1-phosphate receptor 2, sequence (O95136 whole entry): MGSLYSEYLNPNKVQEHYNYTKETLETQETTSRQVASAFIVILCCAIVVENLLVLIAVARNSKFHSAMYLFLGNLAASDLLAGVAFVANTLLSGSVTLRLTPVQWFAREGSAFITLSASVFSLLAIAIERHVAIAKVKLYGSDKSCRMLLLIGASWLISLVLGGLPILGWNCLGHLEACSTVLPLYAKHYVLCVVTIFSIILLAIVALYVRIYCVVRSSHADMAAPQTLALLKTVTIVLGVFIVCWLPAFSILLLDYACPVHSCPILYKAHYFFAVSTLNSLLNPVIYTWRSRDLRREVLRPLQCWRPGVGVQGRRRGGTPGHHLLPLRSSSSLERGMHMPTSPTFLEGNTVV

Disintegrin and metalloproteinase domain-containing protein 17, sequence (P78536 whole entry, the tested form may be a part): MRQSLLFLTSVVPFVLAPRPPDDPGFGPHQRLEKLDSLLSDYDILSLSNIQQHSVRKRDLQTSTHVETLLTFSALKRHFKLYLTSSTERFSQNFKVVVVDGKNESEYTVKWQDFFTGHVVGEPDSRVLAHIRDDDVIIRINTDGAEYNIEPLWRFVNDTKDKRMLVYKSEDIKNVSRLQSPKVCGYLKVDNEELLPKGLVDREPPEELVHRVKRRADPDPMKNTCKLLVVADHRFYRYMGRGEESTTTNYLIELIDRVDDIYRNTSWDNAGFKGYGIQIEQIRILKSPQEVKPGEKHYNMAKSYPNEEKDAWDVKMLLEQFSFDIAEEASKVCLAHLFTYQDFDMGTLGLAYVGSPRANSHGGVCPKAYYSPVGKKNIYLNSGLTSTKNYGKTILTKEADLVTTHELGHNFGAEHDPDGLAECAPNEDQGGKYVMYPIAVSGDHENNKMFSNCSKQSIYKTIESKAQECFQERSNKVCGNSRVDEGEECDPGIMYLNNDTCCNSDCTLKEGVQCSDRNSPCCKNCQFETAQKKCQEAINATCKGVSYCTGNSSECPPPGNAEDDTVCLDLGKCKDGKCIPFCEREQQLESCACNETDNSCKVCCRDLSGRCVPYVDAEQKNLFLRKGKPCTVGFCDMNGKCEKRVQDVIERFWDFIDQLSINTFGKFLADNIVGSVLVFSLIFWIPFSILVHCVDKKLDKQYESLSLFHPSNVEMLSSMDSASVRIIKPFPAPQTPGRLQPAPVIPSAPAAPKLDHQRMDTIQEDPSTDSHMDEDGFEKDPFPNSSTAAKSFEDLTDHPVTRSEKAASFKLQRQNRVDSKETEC
Vasopressin V1b receptor, sequence (P47901 whole entry): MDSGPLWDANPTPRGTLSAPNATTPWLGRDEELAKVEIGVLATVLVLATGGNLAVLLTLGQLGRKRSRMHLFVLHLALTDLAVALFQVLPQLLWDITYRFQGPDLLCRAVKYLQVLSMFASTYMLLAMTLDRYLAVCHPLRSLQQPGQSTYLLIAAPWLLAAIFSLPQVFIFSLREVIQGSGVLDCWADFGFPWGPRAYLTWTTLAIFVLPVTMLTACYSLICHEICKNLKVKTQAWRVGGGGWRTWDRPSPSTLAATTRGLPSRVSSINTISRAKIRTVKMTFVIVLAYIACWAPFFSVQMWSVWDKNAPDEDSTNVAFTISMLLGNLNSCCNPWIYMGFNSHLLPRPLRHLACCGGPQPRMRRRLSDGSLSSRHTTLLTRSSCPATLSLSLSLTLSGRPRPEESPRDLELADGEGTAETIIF
Vasopressin V2 receptor, sequence (P30518 whole entry): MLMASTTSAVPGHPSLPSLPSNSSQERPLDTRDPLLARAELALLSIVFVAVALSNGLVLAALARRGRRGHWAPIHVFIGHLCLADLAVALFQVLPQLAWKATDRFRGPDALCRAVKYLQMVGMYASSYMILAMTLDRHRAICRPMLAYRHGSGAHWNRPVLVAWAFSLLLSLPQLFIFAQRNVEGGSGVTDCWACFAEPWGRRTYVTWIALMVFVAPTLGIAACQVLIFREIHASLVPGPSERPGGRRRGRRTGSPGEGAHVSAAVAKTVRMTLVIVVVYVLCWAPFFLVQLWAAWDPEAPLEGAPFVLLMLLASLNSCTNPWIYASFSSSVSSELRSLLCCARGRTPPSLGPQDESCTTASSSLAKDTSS

SMILES: Cc1ccc(O)c(-c2cc(-c3ccc(F)cc3)no2)c1
EC50 [3]: > 67.5 µM (inactive)
IC50 [4]: > 67.5 µM (inactive)
IC50 [5]: > 67.5 µM (inactive)
EC50 [6]: > 67.5 µM (inactive)

SMILES: COCCN(C(=O)N1CCN(c2ccccc2C)CC1)c1ccc(OC)cc1
IC50 [7]: 29.3 µM (inactive)
IC50 [8]: 19.6 µM (inactive)
IC50 [9]: 1 µM (active)
IC50 [10]: 0.1 µM (active)

SMILES: CC1(Cc2cccc(C#N)c2)C(=O)Nc2ccc(-c3cccc(C(F)(F)F)c3)cc21 (stereo unspecified)
EC50 [11]: > 59.7 µM (inactive)
IC50 [12]: > 69.5 µM (inactive)
EC50 [13]: > 59.7 µM (inactive)
IC50 [14]: 8.9 µM (active)

Next, values leading:

IC50 [1]: 2.13 µM (active)
EC50 [2]: 46.9 µM (active)
SMILES: CCC(=O)Nc1ccccc1C(=O)OCC(=O)c1ccccc1

EC50 [15]: > 50 µM (not active)
SMILES: Cc1cccc2cc(C(c3nnnn3CC3CCCO3)N3CCc4ccccc4C3)c(=O)[nH]c12 (stereo unspecified)

IC50 [1]: 16.7 µM (not active)
SMILES: COC(=O)NCCOC(=O)N(O)c1ccc(Br)cc1
